Test system: Huh7.5 cells
Experiment: Supernatant infectivity titer, focus forming unit (FFU) method on Huh7.5 cells
Type: cell-based, human
Description: To determine the efficiency of the developed system, HCV RNA titers are determined in IU/ml (international units/ml) with Taq-Man Real-Time-PCR and infectious titers are determined with a focus-forming units (FFU) method: in this method, infectivity titers are determined by infection of cell culture replicates with serial dilutions of virus containing supernatants and, following immuno-stainings for HCV antigens, counting of HCV-antigen positive cell foci. Alternatively the infectious titers are determined as 50% tissue culture infectious dose.
Viral spread was monitored by HCV Core and NS5A immunostainings with mouse anti-HCV core protein monoclonal antibody (B2) (Anogen, Yes Biotech Laboratories) or anti-NS5A, 9E10, respectively, as described in the following section. For reporter viruses tagged with fluorescent reporter gene, viral spread was also monitored by direct visualization of the reporter gene by fluorescence microscopy. For reporter viruses tagged with hRLuc reporter gene, viral spread was also monitored by luminescence-based assay as described below. Supernatant infectivity titers were determined as 50% tissue culture infectious dose (TCID50)/mL or as focus forming units (FFU)/mL, as described in the following section. Supernatant HCV RNA titers were measured by a 5′ UTR based Real Time RT-PCR as described below.
Viral infectivity titers were determined by the tissue culture infectious dose 50 (TCID50) or focus forming unit method. 6×10^3/well naive Huh7.5 cells were plated out in a poly-D-lysine coated 96-well plate (Nunc) the day before infection. Cells were then incubated with 10-fold dilutions of cell culture supernatants. For TCID50 determinations, 6 replicates per dilution were incubated for 2-3 days. For FFU determinations, wells were incubated for 48 rs. After incubation, cells were permeabilized for 5′ with cold methanol. After washing 1× with PBS and 1× with PBS/Tween-20, blocking was carried out for 20′ with sterile filtered 1% BSA/0.2% skim milk in PBS followed by a 5′ blocking of endogenous peroxidase activity using 3% H2O2. Cells were washed as above and incubated with a 1:200 dilution of 1° Ab α-NS5A (9E10) in PBS/0.1% tween-20 over night at 4° C. After washing, a 1:300 dilution of 2° Ab HRP-goat anti-mouse IgG (H+L) (Amersham Biosciences) in PBS/0.1% tween-20 was added and incubated for 30′ at room temperature. Staining was developed using DAB substrate kit (DAKO) for 30′ after washing. In TCID50 determinations, wells were scored positive if one or more cells were infected, and the TCID50 was calculated according to the Reed and Muench method. TCID50 values are derived from single or multiple determinations as indicated. FFU determinations are based on counts of wells with 5-100 FFU and three independent virus dilutions with one replicate each. Counts were obtained by counting FFU by eye or by using automated counting on an ImmunoSpot Series 5 UV Analyzer (CTL Europe GmbH) with customized software kindly provided by CTL. From FFU counts in experimental wells, the mean of spot counts of at least 6 negative control wells was subtracted (˜usually 3 to 15 spots).

[1] = day 5 post transfection, Huh7.5
[2] = day 8 post transfection, Huh7.5

## S52^5′UTR/HK6a^C-NS2/JFH1T1388C, A1589C: 6a Core-NS2 recombinant with heterotypic 3a (S52) 5′UTR
[1]
  Infectivity titer of transfection supernatant Log10 (FFU/mL): 3.29 Log10 (FFU/mL)
[2]
  Infectivity titer of transfection supernatant Log10 (FFU/mL): 3.15 Log10 (FFU/mL)

## H77^5′UTR/HK6a^C-NS2/JFH1T1390C, A1591C: 6a Core-NS2 recombinant with heterotypic 1a (H77) 5′UTR
[1]
  Infectivity titer of transfection supernatant Log10 (FFU/mL): 3.60 Log10 (FFU/mL)
[2]
  Infectivity titer of transfection supernatant Log10 (FFU/mL): 3.23 Log10 (FFU/mL)

## H77^5′UTR/J8^C-NS2/JFH1: 2b Core-NS2 recombinant with heterotypic 1a (H77) 5′UTR
[1]
  Infectivity titer of transfection supernatant Log10 (FFU/mL): 3.41 Log10 (FFU/mL)
[2]
  Infectivity titer of transfection supernatant Log10 (FFU/mL): 2.58 Log10 (FFU/mL)

## S52^5′UTR/J4^C-NS2/JFH1T2995C, A4826T: 1b Core-NS2 recombinant with heterotypic 3a (S52) 5′UTR
[1]
  Infectivity titer of transfection supernatant Log10 (FFU/mL): 2.03 Log10 (FFU/mL)
[2]
  Infectivity titer of transfection supernatant Log10 (FFU/mL): 1.67 Log10 (FFU/mL)

## HK6a^5′UTR-NS2/JFH1T1391C, A1592C: 6a Core-NS2 recombinant with homotypic 6a (HK6a) 5′UTR
Day 5 post transfection, * another, independent transfection experiment
  Infectivity titer of transfection supernatant Log10 (FFU/mL): 4.57 Log10 (FFU/mL)
Day 7 post transfection, * another, independent transfection experiment
  Infectivity titer of transfection supernatant Log10 (FFU/mL): 4.39 Log10 (FFU/mL)

## H77^5′UTR/S52^C-NS2/JFH1T2719G, A4551C: 3a Core-NS2 recombinant with heterotypic 1a (H77) 5′UTR
[1]
  Infectivity titer of transfection supernatant Log10 (FFU/mL): 4.07 Log10 (FFU/mL)
[2]
  Infectivity titer of transfection supernatant Log10 (FFU/mL): 4.22 Log10 (FFU/mL)

## H77^5′UTR/J4^C-NS2/JFH1T2997C, A4828T: 1b Core-NS2 recombinant with heterotypic 1a (H77) 5′UTR
[1]
  Infectivity titer of transfection supernatant Log10 (FFU/mL): 3.32 Log10 (FFU/mL)
[2]
  Infectivity titer of transfection supernatant Log10 (FFU/mL): 2.49 Log10 (FFU/mL)

## S52^5′UTR-NS2/JFH1T2717G, A4549C: 3a Core-NS2 recombinant with homotypic 3a (S52) 5′UTR
[1]
  Infectivity titer of transfection supernatant Log10 (FFU/mL): 4.57 Log10 (FFU/mL)
[2]
  Infectivity titer of transfection supernatant Log10 (FFU/mL): 4.53 Log10 (FFU/mL)

## S52^5′UTR/J8^C-NS2/JFH1: 2b Core-NS2 recombinant with heterotypic 3a (S52) 5′UTR
[1]
  Infectivity titer of transfection supernatant Log10 (FFU/mL): 3.08 Log10 (FFU/mL)
[2]
  Infectivity titer of transfection supernatant Log10 (FFU/mL): 2.10 Log10 (FFU/mL)

## J4^5′UTR-NS2/JFH1T2997C, A4828T: 1b Core-NS2 recombinant with homotypic 1b (J4) 5′UTR
[1]
  Infectivity titer of transfection supernatant Log10 (FFU/mL): 2.47 Log10 (FFU/mL)
[2]
  Infectivity titer of transfection supernatant Log10 (FFU/mL): 2.07 Log10 (FFU/mL)

## J8^5′UTR-NS2/JFH1: 2b Core-NS2 recombinant with homotypic 2b (J8) 5′UTR
[1]
  Infectivity titer of transfection supernatant Log10 (FFU/mL): 3.94 Log10 (FFU/mL)
[2]
  Infectivity titer of transfection supernatant Log10 (FFU/mL): 3.75 Log10 (FFU/mL)

— patent publication US8772022B2, “Hepatitis C virus expressing reporter tagged NS5A protein” (Hvidovre Hospital, priority 2008, dated 2014)
